Molecular target: T1, Dopamine beta hydroxylase (Homo sapiens, UniProt P09172)
T1 construct: 125 μl of plasma; tissue Instituto Português do Sangue Transplantação; host or cells: human plasma from healthy donors
T1 sequence (P09172 40-617 limits assumed): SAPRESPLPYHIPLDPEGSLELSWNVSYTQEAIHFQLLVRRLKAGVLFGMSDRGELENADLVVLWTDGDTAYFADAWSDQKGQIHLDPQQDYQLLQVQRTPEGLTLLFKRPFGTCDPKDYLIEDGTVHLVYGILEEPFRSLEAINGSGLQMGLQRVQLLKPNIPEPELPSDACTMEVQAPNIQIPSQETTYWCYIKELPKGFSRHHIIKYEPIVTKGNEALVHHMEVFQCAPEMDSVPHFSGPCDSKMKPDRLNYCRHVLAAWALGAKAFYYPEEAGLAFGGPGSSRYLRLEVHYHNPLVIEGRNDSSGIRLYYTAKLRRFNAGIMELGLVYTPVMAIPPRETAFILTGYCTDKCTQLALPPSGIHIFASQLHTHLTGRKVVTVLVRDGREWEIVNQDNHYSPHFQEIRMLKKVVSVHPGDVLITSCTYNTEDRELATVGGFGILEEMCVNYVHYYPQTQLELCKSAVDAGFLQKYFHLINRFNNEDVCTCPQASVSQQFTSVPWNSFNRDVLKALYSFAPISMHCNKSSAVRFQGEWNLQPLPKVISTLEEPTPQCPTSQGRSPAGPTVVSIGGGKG
Assay: Dopamine beta hydroxylase activity in human plasma
Format: biochemical
Details: for Plasma (0.01 μM), activity in % of control: inhibitor 0.01 μM; for Plasma (0.1 μM), activity in % of control: inhibitor 0.1 μM; for Plasma (1 μM), activity in % of control: inhibitor 1 μM
Outline: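 Healthy-donor human plasma pre-incubated 10 min at 37° C with compound at final 10, 100 or 1000 nM in pH 5.0 acetate buffer with ascorbate, fumarate, pargyline, N-ethylmaleimide, catalase and copper sulfate. Tyramine substrate then added for 45 min; octopamine formed was isolated by SCX cartridge, periodate-converted and read at 330 nm; activity given as % control.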

Plasma (0.01 μM), activity in % of control | Plasma (0.1 μM), activity in % of control | Plasma (1 μM), activity in % of control | Compound
86.6 % of control | 28.9 % of control | – | Cn1c(CC(=O)NC2CCCC2)c2n(c1=S)C[C@@]1(c3cc(Cl)ccc3F)C[C@@H]21 [Example 273, 2-((5aS,6aR)-5a-(5-chloro-2-fluorophenyl)-2-methyl-3-thioxo-2,3,5,5a,6,6a-hexahydrocyclopropa[3,4]pyrrolo[1,2-c]imidazol-1-yl)-N-cyclopentylacetamide]
104.8 % of control | 86.0 % of control | – | CN(CCO)C(=O)Cc1c2n(c(=S)n1C)C[C@@H](c1c(F)ccc(F)c1F)C2 [Example 293, (R)—N-(2-hydroxyethyl)-N-methyl-2-(2-methyl-3-thioxo-6-(2,3,6-trifluorophenyl)-2,5,6,7-tetrahydro-3H-pyrrolo[1,2-c]imidazol-1-yl)acetamide]
58.4 % of control | 7.5 % of control | – | CS(=O)(=O)CCNC(=O)Cc1[nH]c(=S)n2c1C[C@@H](c1c(F)ccc(Cl)c1F)C2 [Example 114, (S)-2-(6-(3-chloro-2,6-difluorophenyl)-3-thioxo-2,5,6,7-tetrahydro-3H-pyrrolo[1,2-c]imidazol-1-yl)-N-(2-(methylsulfonyl)ethyl)acetamide]
101.9 % of control | 68.3 % of control | – | Cn1c(CC(=O)N2CC[C@@H](F)C2)c2n(c1=S)C[C@@H](c1c(F)ccc(F)c1F)C2 [Example 292, 1-((R)-3-fluoropyrrolidin-1-yl)-2-((R)-2-methyl-3-thioxo-6-(2,3,6-trifluorophenyl)-2,5,6,7-tetrahydro-3H-pyrrolo[1,2-c]imidazol-1-yl)ethan-1-one]
91.5 % of control | 19.7 % of control | – | CN(C(=O)Cc1[nH]c(=S)n2c1[C@@H]1C[C@]1(c1cc(Br)ccc1F)C2)C1CCCC1 [Example 155, 2-((5aS,6aR)-5a-(5-bromo-2-fluorophenyl)-3-thioxo-2,3,5,5a,6,6a-hexahydrocyclopropa[3,4]pyrrolo[1,2-c]imidazol-1-yl)-N-cyclopentyl-N-methylacetamide]
88.2 % of control | 29.5 % of control | – | O=S1(=O)CCC(NCCc2[nH]c(=S)n3c2C[C@H](c2c(F)ccc(Br)c2F)C3)CC1 [Example 178, (R)-6-(3-bromo-2,6-difluorophenyl)-1-(2-((1,1-dioxidotetrahydro-2H-thiopyran-4-yl)amino)ethyl)-2,5,6,7-tetrahydro-3H-pyrrolo[1,2-c]imidazole-3-thione]
105.6 % of control | 83.7 % of control | – | Cn1c(CCC(=O)Nc2ccccn2)c2n(c1=S)C[C@@H](c1c(F)cccc1F)C2 [Example 269, (R)-3-(6-(2,6-difluorophenyl)-2-methyl-3-thioxo-2,5,6,7-tetrahydro-3H-pyrrolo[1,2-c]imidazol-1-yl)-N-(pyridin-2-yl)propanamide]
– | 37.2 % of control | 3.3 % of control | O=C(Cc1[nH]c(=S)n2c1C[C@@H](c1c(F)ccc(Br)c1F)C2)N1CCCC1 [Example 101, (S)-2-(6-(3-bromo-2,6-difluorophenyl)-3-thioxo-2,5,6,7-tetrahydro-3H-pyrrolo[1,2-c]imidazol-1-yl)-1-(pyrrolidin-1-yl)ethan-1-one]
– | 70.3 % of control | 8.1 % of control | O=C(Cc1[nH]c(=S)n2c1C[C@@H](c1cc(Br)ccc1F)C2)NC1CCCC1 [Example 74, (S)-2-(6-(5-bromo-2-fluorophenyl)-3-thioxo-2,5,6,7-tetrahydro-3H-pyrrolo[1,2-c]imidazol-1-yl)-N-cyclopentylacetamide]

Reference: patent US11434242B2, “Dopamine-b-hydroxylase inhibitors” (BIAL-PORTELA & Cª, S.A., priority 2017, dated 2022)
